From US4522815A, “Anthracycline glycosides” (priority 1982, dated 1985)
Converted amounts (≈) assume the structure as drawn. Like-named read-outs stand apart in the source and are kept apart here.

Experiments:
ascitic P388 leukemia = assay: Antitumor activity against ascitic P388 leukemia in CDF-1 mice, treatment i.p. on day 1; assay type: in vivo
Procedure: The primary screening […] was carried out in CDF-1 mice bearing ascitic P388 leukemia (10^6 cells/mouse). Both IIa and IIc were suspended in 10%. Tween 80 and injected intraperitoneally.
Results of the primary screening "in vivo" carried out in CDF-1 mice bearing P388 ascitic leukemia and treated i.p. the day after tumor transplantation, are reported in Table 5.
Antitumor activity against ascitic P388 leukekemia.
(§1) Treatment i.p. on day 1.
^a median survival time; % over untreated controls
^b long term survivors (≥ 60 days)
^c evaluated on the basis of autoptic findings on dead mice
(§2) ^d data of two experiments (range)
^e date of three experiments (range)
Antitumor activity of Ib and Id against ascitic P388
as §1

Gross leukemia [1] = assay: Oral activity against i.v. transplanted Gross leukemia (i.v. comparators); assay type: in vivo, C3H/Me mice; conditions: Table 7, i.v. +1; for Toxic deaths: two experiments; for T/C %, median survival time: two experiments (range)
Source text: (§3) Results of studies performed in C3H/Me mice carrying i.v. transplanted Gross leukemia and treated i.v. the day after tumor transplantation, are reported in Table 6. […] The compounds Ib and Id were further investigated for oral activity on Gross leukemic transplanted i.v., in comparison with DNR, DX given i.v. and 4-dm DNR given oral route.
Oral activity of Ib and Id against Gross leukemia
^a days after transplantation
as §2

Gross leukemia [2] = assay: Antitumor activity against i.v. transplanted Gross leukemia in C3H/Me mice, treatment i.v. on day 1; assay type: in vivo; conditions: Table 6
Source text: as §3
Antitumor activity against i.v. Gross leukemia.
Treatment i.v. on day 1.

HeLa cells = assay: Colony inhibition test against HeLa cells in vitro (cloning efficiency), treatment for 24 hrs; assay type: cell-based; conditions: Homo sapiens, HeLa, 24 h, 24 hrs; for IC50: HeLa colony inhibition; for activity at 0.0062 µg/mL / activity at 0.0125 µg/mL / activity at 0.025 µg/mL: read-out: No of colonies, % of untreated controls; for activity at 0.0062 µg/mL: 6.2 ng/ml; for activity at 0.0125 µg/mL: 12.5 ng/ml; for activity at 0.025 µg/mL: 25 ng/ml
[3] = Table 2, 4.4 mg/kg i.p. day 1, two experiments
[4] = Table 2, 6.6 mg/kg i.p. day 1, two (DNR) or three (DX) experiments
[5] = Table 2, 10 mg/kg i.p. day 1, three experiments
[6] = Table 5, 4.4 mg/kg i.p. day 1, DNR: two experiments

`COc1cccc2c1C(=O)c1c(O)c3c(c(O)c1C2=O)C[C@@](O)(C(=O)CO)C[C@@H]3O[C@H]1C[C@H](N)[C@H](O)[C@H](C)O1` [DX, doxorubicin, reference compound] was tested, and the “T/C, median survival time; % over untreated controls” value (shortened to “T/C, median survival time; %”) (ascitic P388 leukemia; Table 2, 4.4 mg/kg i.p. day 1, data of two experiments (range)) was 220-227%, the “LTS, long term survivors (≥ 60 days)” value (ascitic P388 leukemia; [3]) was 2/18 and the “Toxic deaths (autoptic findings on dead mice)” value (ascitic P388 leukemia; [3]) was 0/18. For the same molecule, the “T/C, median survival time; %” value (ascitic P388 leukemia; Table 2, 6.6 mg/kg i.p. day 1, range of two (DNR) or three (DX) experiments) was 227-305%, the “LTS, long term survivors (≥ 60 days)” value (ascitic P388 leukemia; [4]) was 2/26 and the “Toxic deaths (autoptic findings on dead mice)” value (ascitic P388 leukemia; [4]) was 0/26. For the same molecule, the “LTS, long term survivors (≥ 60 days)” value (ascitic P388 leukemia; [5]) was 7/26, the “Toxic deaths (autoptic findings on dead mice)” value (ascitic P388 leukemia; [5]) was 3/26 and the “LTS, long term survivors (≥ 60 days)” value (ascitic P388 leukemia; [6]) was 1/10. The “Toxic deaths (autoptic findings on dead mice)” value (ascitic P388 leukemia; [6]) was 0/10, the “T/C, median survival time; %” value (ascitic P388 leukemia; Table 5, 4.4 mg/kg i.p. day 1, DNR: two experiments (range)) was 220% and the “LTS, long term survivors (≥ 60 days)” value (ascitic P388 leukemia; Table 5, 6.6 mg/kg i.p. day 1) was 0/10. The “T/C, median survival time; %” value (ascitic P388 leukemia; Table 5, 6.6 mg/kg i.p. day 1) was 305%, the “Toxic deaths (autoptic findings on dead mice)” value (ascitic P388 leukemia; Table 5, 6.6 mg/kg i.p. day 1) was 0/10 and the “LTS, long term survivors (≥ 60 days)” value (ascitic P388 leukemia; Table 5, 10 mg/kg i.p. day 1) was 5/10. For the same molecule, the “T/C, median survival time; %” value (ascitic P388 leukemia; Table 5, 10 mg/kg i.p. day 1) was greater than 610%, the “Toxic deaths (autoptic findings on dead mice)” value (ascitic P388 leukemia; Table 5, 10 mg/kg i.p. day 1) was 0/10 and the Toxic deaths (Gross leukemia [1]; 10 mg/kg) was 1/20. For the same molecule, the “T/C %, median survival time” value (Gross leukemia [1]; 10 mg/kg) was 171-171%, the Toxic deaths (Gross leukemia [1]; 13 mg/kg) was 1/20 and the “T/C %, median survival time” value (Gross leukemia [1]; 13 mg/kg) was 200-200%. For the same molecule, the Toxic deaths (Gross leukemia [1]; 16.9 mg/kg) was 3/13, the “T/C %, median survival time” value (Gross leukemia [1]; 16.9 mg/kg) was 200-207% and the “T/C, median survival time; %” value (Gross leukemia [2]; 10 mg/kg i.v. day 1) was 171%. For the same molecule, the Toxic deaths (Gross leukemia [2]; 10 mg/kg i.v. day 1) was 0/10, the “T/C, median survival time; %” value (Gross leukemia [2]; 13 mg/kg i.v. day 1) was 200% and the Toxic deaths (Gross leukemia [2]; 13 mg/kg i.v. day 1) was 0/10. The “T/C, median survival time; %” value (Gross leukemia [2]; 16.9 mg/kg i.v. day 1) was 207%, the Toxic deaths (Gross leukemia [2]; 16.9 mg/kg i.v. day 1) was 3/10 and the IC50 (HeLa cells; read-out: ID50, Table 1) was roughly 10 ng/mL (≈ 0.0184 µM). For the same molecule, the IC50 (HeLa cells; read-out: ID50, Table 3) was roughly 7.5 ng/mL (≈ 0.0138 µM), the activity at 0.0062 µg/mL (HeLa cells; Table 1) was 69% and the activity at 0.0125 µg/mL (HeLa cells; Table 1) was 40%. The activity at 0.025 µg/mL (HeLa cells; Table 1) was 24%, the activity at 0.0062 µg/mL (HeLa cells; Table 3) was 59% and the activity at 0.0125 µg/mL (HeLa cells; Table 3) was 28%. It also gave an activity at 0.025 µg/mL (HeLa cells; Table 3) of 0%.
